Test results as given in patent publication US20250304623A1, “PEPTIDES FOR INTRACELLULAR DELIVERY” (UNIVERSIDADE DE SANTIAGO DE COMPOSTELA, priority 2022, published 2025).
*: point of attachment. NHNH2 = NN*

What was measured:
Assay type in all cases: cell-based
ARPE19 cells [1] = experiment: RLuc pDNA delivery, robotic library screening, ARPE19
A549 cells = experiment: EGFP mRNA delivery, robotic library screening, A549
Description: (§1) Cells were seeded in a 96 well plate the day before the experiment at a concentration of 50,000 cell/mL (100 μL/w) in DMEM+10% FBS+1% Gln-Abt. For robotic library screening, the delivery of EGFP-mRNA (from TriLink, fully substituted with 5-methoxyuridine, capped and polyadenylated; TriLink, CleanCap® EGFP mRNA (5moU), ref. L-7201) in six different cell lines was performed. Amphiphilic molecule stock solutions were prepared in DMSO as described above and diluted in DMEM to afford a range of concentrations. The solutions of EGFP-mRNA/amphiphilic molecule complexes were freshly prepared prior to the transfection experiments. 35 μL of the corresponding amphiphile were added to 10 μL of a solution of EGFP-mRNA at 10 ng/μL in DMEM. The mixture was shaken for 30 min at room temperature before the addition to the cells. The cell medium was aspirated, and cells were washed with PBS twice. Cells were covered with 39 μL of DMEM and 11 μL of the complex's solution were added to the cells and incubated for 4 h (final concentration of peptide=2.5, 5 and 10 μM; final concentration of EGFP-mRNA=25 ng/well). After the incubation, the medium was replaced by 100 μL of fresh DMEM supplemented with 10% FBS. The total EGFP fluorescence was quantified after 72 h in a well plate reader. Amphiphile transfection efficiency was compared and normalized to Lipofectamine® MessengerMax efficiency (value of 1 in Tables 1-5 and 7; double underlined numbers). All experiments were done in triplicate.
(§2) Tables 1-7: RLuc (pDNA) or EGFP (mRNA) expression levels were normalized to Lipofectamine reagents (value=1) and expressed as fold-times signal increase. In the case of siRNA, the siRNA treated cells fluorescence was compared with siMOCK control fluorescence, while Cas9-RNP mediated knockout was measured against the fluorescence of untreated cells. In both siRNA and Cas9-RNP, values are expressed as % fluorescence reduction. Amphiphile concentration was 5 μM in all cases. All experiments were performed in triplicate.
(§3) Tables 14-19 show the mean (triplicates) fluorescence intensity measured after the transfection of EGFP mRNA by different amphiphiles at different concentrations in a variety of cell lines. Background fluorescence values, accounted by untreated control cells, were subtracted for processing.

ARPE19 cells [2] = experiment: EGFP mRNA delivery, robotic library screening, ARPE19
Description: as §1, §2, §3

[3] = system: A549 cells expressing EGFP; experiment: Cas9-RNP delivery against EGFP (gene editing, plate reader), A549; conditions: A549 cells
Description: To generate an EGFP expressing HeLa cell line, HeLa cells were transfected with EGFP pDNA (pEGFP-C1, Clontech) and stable transfectants were selected with 400 μg/mL of G-418 (Millipore). Green clones were selected by epifluorescence microscopy and tested for EGFP expression stability through several passages. […] All other EGFP-expressing cell lines were obtained in a similar way from parent non-EGFP-expressing cell lines.
Cells expressing EGFP were seeded in a 96 well plate the day before the experiment at a concentration of 50,000 cell/mL (100 μL/w) in DMEM+10% FBS+1% Gln-Abt. For robotic library screening, the delivery of Cas9-RNP against EGFP (RNP designed to knock-out the gene encoding for the enhanced green fluorescent protein (EGFP)) was performed. For RNP assembly, 9.2 μL of crRNA and 9.2 μL of tracrRNA were mixed in 211.6 μL of Nuclease-Free Duplex Buffer (IDT), incubated for 5 min at 95° C. and slowly cooled at rt (see I. Lostalé-Seijo, et al. Peptide/Cas9 nanostructures for ribonucleoprotein cell membrane transport and gene edition, Chem. Sci., 2017). Cas9 protein was dissolved in DMEM at a final concentration of 4 μM and equal volumes of the RNA complex and Cas9 were mixed and incubated for 5 min at rt. 75 μL of the corresponding amphiphile concentrations were added to 5 μL of RNP at 2 μM. The mixture was shaken for 30 min at room temperature before the addition to the cells. The cell medium was aspirated, and cells were washed twice with PBS. Cells were covered with 30 μL of DMEM and 20 μL of the RNP/amphiphile complexes were added to the cells (final peptide concentrations=2.5, 5 and 10 μM; final Cas9-RNP concentration=50 nM) and incubated for 4 h. After the incubation, the medium was replaced by 100 μL of fresh DMEM supplemented with 10% FBS. The total EGFP fluorescence was quantified after 72 h in a plate reader (FIG. 2, Table 1 (right) and Table 6). All experiments were done in triplicate.
as §2
Tables 26-31 show the mean (triplicates) percentage of gene editing, accounted by GFP fluorescence intensity decrease (% of reduction), measured after the transfection of Cas9-RNP by different amphiphiles at different concentrations in a variety of cell lines. Background values, accounted by untreated control cells, were subtracted for processing.

Substance: Ac-RK*LRK*K*L-NH2 (Ac-RK(NHNH2)LRK(NHNH2)K(NHNH2)L-NH2; not fully specified; printed as Ac-RK*LRK*K*L-NH2; also: K*2,K*5,K*6: native or modified lysine (ε-amide to a linker)) [Peptide 7.3]
- mean luminescent intensity (RLuc pDNA) (ARPE19 cells [1]; Dodecanal, 5 μM): 661 RLU
- mean luminescent intensity (RLuc pDNA) (ARPE19 cells [1]; Dodecanal, 10 μM): 458 RLU
- mean luminescent intensity (RLuc pDNA) (ARPE19 cells [1]; Dodecanal, 15 μM): 558 RLU
- mean luminescent intensity (RLuc pDNA) (ARPE19 cells [1]; Myristoleyl, 5 μM): −209 RLU
- mean luminescent intensity (RLuc pDNA) (ARPE19 cells [1]; Myristoleyl, 10 μM): −262 RLU
- mean luminescent intensity (RLuc pDNA) (ARPE19 cells [1]; Myristoleyl, 15 μM): −315 RLU
- mean luminescent intensity (RLuc pDNA) (ARPE19 cells [1]; Palmitoleyl, 5 μM): 344 RLU
- mean luminescent intensity (RLuc pDNA) (ARPE19 cells [1]; Petroselinyl, 5 μM): 22197 RLU
- mean luminescent intensity (RLuc pDNA) (ARPE19 cells [1]; Petroselinyl, 10 μM): 31833 RLU
- mean luminescent intensity (RLuc pDNA) (ARPE19 cells [1]; Petroselinyl, 15 μM): 7692 RLU
- mean fluorescence intensity (EGFP mRNA) (A549 cells; Dodecanal, 2.5 μM): 2894
- mean fluorescence intensity (EGFP mRNA) (A549 cells; Dodecanal, 5 μM): 4662
- mean fluorescence intensity (EGFP mRNA) (A549 cells; Dodecanal, 10 μM): 248
- mean fluorescence intensity (EGFP mRNA) (A549 cells; Myristoleyl, 2.5 μM): 4491
- mean fluorescence intensity (EGFP mRNA) (A549 cells; Myristoleyl, 5 μM): 5378
- mean fluorescence intensity (EGFP mRNA) (A549 cells; Myristoleyl, 10 μM): 228
- mean fluorescence intensity (EGFP mRNA) (A549 cells; Oleyl, 2.5 μM): 218
- mean fluorescence intensity (EGFP mRNA) (A549 cells; Oleyl, 5 μM): 1205
- mean fluorescence intensity (EGFP mRNA) (A549 cells; Oleyl, 10 μM): 1046
- mean fluorescence intensity (EGFP mRNA) (A549 cells; Palmitoleyl, 2.5 μM): 2134
- mean fluorescence intensity (EGFP mRNA) (A549 cells; Palmitoleyl, 5 μM): 3484
- mean fluorescence intensity (EGFP mRNA) (A549 cells; Petroselinyl, 2.5 μM): 1317
- mean fluorescence intensity (EGFP mRNA) (A549 cells; Petroselinyl, 5 μM): 6947
- mean fluorescence intensity (EGFP mRNA) (A549 cells; Petroselinyl, 10 μM): 641
- mean fluorescence intensity (EGFP mRNA) (ARPE19 cells [2]; Dodecanal, 2.5 μM): 9507
- mean fluorescence intensity (EGFP mRNA) (ARPE19 cells [2]; Dodecanal, 5 μM): 16576
- mean fluorescence intensity (EGFP mRNA) (ARPE19 cells [2]; Dodecanal, 10 μM): 6912
- mean fluorescence intensity (EGFP mRNA) (ARPE19 cells [2]; Myristoleyl, 2.5 μM): 44289
- mean fluorescence intensity (EGFP mRNA) (ARPE19 cells [2]; Myristoleyl, 5 μM): 10233
- mean fluorescence intensity (EGFP mRNA) (ARPE19 cells [2]; Myristoleyl, 10 μM): 2166
- mean fluorescence intensity (EGFP mRNA) (ARPE19 cells [2]; Oleyl, 2.5 μM): 20910
- mean fluorescence intensity (EGFP mRNA) (ARPE19 cells [2]; Oleyl, 5 μM): 4303
- mean fluorescence intensity (EGFP mRNA) (ARPE19 cells [2]; Palmitoleyl, 2.5 μM): 34422
- mean fluorescence intensity (EGFP mRNA) (ARPE19 cells [2]; Palmitoleyl, 5 μM): 7527
- mean fluorescence intensity (EGFP mRNA) (ARPE19 cells [2]; Palmitoleyl, 10 μM): 7536
- mean fluorescence intensity (EGFP mRNA) (ARPE19 cells [2]; Petroselinyl, 2.5 μM): 25416
- mean fluorescence intensity (EGFP mRNA) (ARPE19 cells [2]; Petroselinyl, 5 μM): 5810
- mean fluorescence intensity (EGFP mRNA) (ARPE19 cells [2]; Petroselinyl, 10 μM): 5129
- percentage of gene editing, GFP fluorescence intensity decrease (% of reduction) ([3]; Dodecanal, 10 μM): −2%
- percentage of gene editing, GFP fluorescence intensity decrease (% of reduction) ([3]; Dodecanal, 15 μM): 1%
- percentage of gene editing, GFP fluorescence intensity decrease (% of reduction) ([3]; Myristoleyl, 5 μM): 7%
- percentage of gene editing, GFP fluorescence intensity decrease (% of reduction) ([3]; Myristoleyl, 10 μM): 10%
- percentage of gene editing, GFP fluorescence intensity decrease (% of reduction) ([3]; Myristoleyl, 15 μM): 12%
- percentage of gene editing, GFP fluorescence intensity decrease (% of reduction) ([3]; Oleyl, 5 μM): −9%
- percentage of gene editing, GFP fluorescence intensity decrease (% of reduction) ([3]; Oleyl, 15 μM): −1%
- percentage of gene editing, GFP fluorescence intensity decrease (% of reduction) ([3]; Palmitoleyl, 5 μM): 27%
- percentage of gene editing, GFP fluorescence intensity decrease (% of reduction) ([3]; Palmitoleyl, 10 μM): 33%
- percentage of gene editing, GFP fluorescence intensity decrease (% of reduction) ([3]; Palmitoleyl, 15 μM): 13%
- percentage of gene editing, GFP fluorescence intensity decrease (% of reduction) ([3]; Petroselinyl, 5 μM): 23%
- percentage of gene editing, GFP fluorescence intensity decrease (% of reduction) ([3]; Petroselinyl, 10 μM): 22%
- percentage of gene editing, GFP fluorescence intensity decrease (% of reduction) ([3]; Petroselinyl, 15 μM): 7%
